Reference: ChEMBL document CHEMBL5137007, “Hamuramicin C, a Cytotoxic Bicyclic Macrolide Isolated from a Wasp Gut Bacterium” (J Nat Prod, 2022)
pIC50: −log10 of the molar value.

Columns and labels:
SK-HEP1 = test: Antiproliferative activity against human SK-HEP1 cells measured after 72 hrs by SRB assay; type: functional, cell-based; settings: SK-HEP1, 72 h
[1] = Selectivity index, ratio of IC50 for human MRC5 cells to IC50 for human SK-HEP1 cells; type: toxicity; settings: MRC5 cells versus SK-HEP1 cells, read-out: Selectivity Index
[2] = Selectivity index, ratio of IC50 for human MRC5 cells to IC50 for human HCT-116 cells; type: toxicity; settings: MRC5 cells versus HCT-116 cells, read-out: Selectivity Index
SNU-638 = test: Antiproliferative activity against human SNU-638 cells measured after 72 hrs by SRB assay; type: functional, cell-based; settings: SNU-638, 72 h
HCT-116 = test: Antiproliferative activity against human HCT-116 cells measured after 72 hrs by SRB assay; type: functional, cell-based; settings: HCT-116, 72 h
[3] = Selectivity index, ratio of IC50 for human MRC5 cells to IC50 for human MDA-MB-231 cells; type: toxicity; settings: MRC5 cells versus MDA-MB-231 cells, read-out: Selectivity Index
A549 = test: Antiproliferative activity against human A549 cells measured after 72 hrs by SRB assay; type: functional, cell-based; settings: A549, 72 h
[4] = Selectivity index, ratio of IC50 for human MRC5 cells to IC50 for human A549 cells; type: toxicity; settings: MRC5 cells versus A549 cells, read-out: Selectivity Index
[5] = Antiproliferative activity against human MRC5 cells measured after 72 hrs by SRB assay; type: toxicity, cell-based
MDA-MB-231 = test: Antiproliferative activity against human MDA-MB-231 cells measured after 72 hrs by SRB assay; type: functional, cell-based; settings: MDA-MB-231, 72 h
[6] = Selectivity index, ratio of IC50 for human MRC5 cells to IC50 for human SNU-638 cells; type: toxicity; settings: MRC5 cells versus SNU-638 cells, read-out: Selectivity Index

Compound	pIC50 (SK-HEP1)	selectivity ratio [1]	selectivity ratio [2]	pIC50 (SNU-638)	pIC50 (HCT-116)	selectivity ratio [3]	pIC50 (A549)	selectivity ratio [4]	IC50 at 72 h [5] [nM]	pIC50 (MDA-MB-231)	selectivity ratio [6]
CCC[C@]1(O)C[C@H](O)[C@@H](C)[C@H]([C@H](C)[C@@H]2C/C=C/C=C/C=C/[C@H](O)C(=O)/C(C)=C/C(C)=C/[C@@H](O)/C(C)=C/CC(=O)O2)O1	5.59	7.2	14.2	5.62	5.89	5.5	5.14	2.6	18700	5.47	7.9
COc1cc([C@@H]2c3cc4c(cc3[C@@H](O[C@@H]3O[C@@H]5CO[C@@H](C)O[C@H]5[C@H](O)[C@H]3O)[C@H]3COC(=O)[C@H]23)OCO4)cc(OC)c1O [ETOPOSIDE]	6.15				5.85		6.10		> 20000	5.01	
